# Activity calls are given as the source filed them. No cut-off for these calls is given here.
# How the values were obtained:
# [1] = molecular target: T1, Atypical chemokine receptor 1 (Homo sapiens) (UniProt Q16570); test: Binding affinity to Duffy (unknown origin) at 10 uM by radioligand displacement assay
# T1 sequence (whole entry): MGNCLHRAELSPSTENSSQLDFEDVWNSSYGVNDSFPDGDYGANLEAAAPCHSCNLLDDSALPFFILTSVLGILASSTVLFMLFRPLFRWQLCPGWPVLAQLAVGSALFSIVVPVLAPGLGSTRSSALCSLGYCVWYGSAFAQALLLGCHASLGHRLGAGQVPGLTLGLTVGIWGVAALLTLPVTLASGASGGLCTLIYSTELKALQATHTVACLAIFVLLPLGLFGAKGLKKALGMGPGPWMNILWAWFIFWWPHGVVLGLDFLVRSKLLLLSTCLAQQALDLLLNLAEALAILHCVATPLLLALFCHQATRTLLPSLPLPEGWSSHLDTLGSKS
# Rattus norvegicus [2] = test: Toxicity in Sprague-Dawley rat assessed as effect on complete blood cell count at 70 to 360 mg/kg, po after 7 days; assay type: organism-based; set-up: dose 70-360 mg/kg, route oral; conditions: in vivo, 168 h
# [3] = Half life in Beagle dog at 1 mg/kg, iv; assay type: ADME, organism-based, Canis lupus familiaris; set-up: dose 1 mg/kg, route intravenous; conditions: in vivo
# [4] = molecular target: C-C chemokine receptor type 5 (Homo sapiens) (UniProt P51681); test: Antagonist activity at CCR5 (unknown origin) assessed as inhibition of calcium flux at 10 uM; assay type: functional
# Rattus norvegicus [5] = test: Toxicity in Sprague-Dawley rat assessed as necropsy at 70 to 360 mg/kg, po after 7 days; assay type: organism-based; set-up: dose 70-360 mg/kg, route oral; conditions: in vivo, 168 h
# Rattus norvegicus [6] = test: Acute toxicity in Sprague-Dawley rat up to 1000 mg/kg; assay type: organism-based; set-up: dose 1000 mg/kg; conditions: in vivo
# [7] = molecular target: Atypical chemokine receptor 3 (Homo sapiens) (UniProt P25106); test: Antagonist activity at CXCR7 (unknown origin) assessed as inhibition of calcium flux at 10 uM; assay type: functional
# [8] = Half life in Sprague-Dawley rat at 1 mg/kg, iv; assay type: ADME, organism-based; set-up: dose 1 mg/kg, route intravenous; conditions: in vivo
# [9] = molecular target: T2, C-X-C chemokine receptor type 3 (Homo sapiens) (UniProt P49682); test: Antagonist activity at CXCR3 (unknown origin) assessed as inhibition of calcium flux at 10 uM; assay type: functional
# T2 sequence (whole entry): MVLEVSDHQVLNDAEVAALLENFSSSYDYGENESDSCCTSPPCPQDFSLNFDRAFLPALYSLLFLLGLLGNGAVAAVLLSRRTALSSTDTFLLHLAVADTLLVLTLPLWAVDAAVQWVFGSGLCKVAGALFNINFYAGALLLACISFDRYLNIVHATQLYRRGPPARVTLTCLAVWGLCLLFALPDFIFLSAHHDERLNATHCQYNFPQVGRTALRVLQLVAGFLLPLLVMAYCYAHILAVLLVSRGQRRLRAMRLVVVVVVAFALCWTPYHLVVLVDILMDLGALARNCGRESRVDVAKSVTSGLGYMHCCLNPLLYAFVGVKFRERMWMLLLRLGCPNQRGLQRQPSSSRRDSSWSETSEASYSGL
# [10] = molecular target: C-X-C chemokine receptor type 4 (Homo sapiens) (UniProt P61073); test: Binding affinity to CXCR4 (unknown origin) at 10 uM by radioligand displacement assay
# [11] = molecular target: T3, C-C chemokine receptor-like 2 (Homo sapiens) (UniProt O00421); test: Antagonist activity at CCR11 (unknown origin) assessed as inhibition of calcium flux at 10 uM; assay type: functional
# T3 sequence (whole entry): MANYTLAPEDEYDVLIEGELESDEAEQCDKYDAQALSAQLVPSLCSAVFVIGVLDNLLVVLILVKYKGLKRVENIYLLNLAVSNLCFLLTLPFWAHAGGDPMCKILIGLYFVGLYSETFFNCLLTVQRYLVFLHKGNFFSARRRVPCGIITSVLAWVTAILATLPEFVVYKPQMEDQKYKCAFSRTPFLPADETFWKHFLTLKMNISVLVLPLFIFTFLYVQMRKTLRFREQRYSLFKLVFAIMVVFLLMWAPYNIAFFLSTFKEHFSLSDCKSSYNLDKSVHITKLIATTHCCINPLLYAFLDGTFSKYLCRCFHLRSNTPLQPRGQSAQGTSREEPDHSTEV
# [12] = molecular target: T4, G protein-coupled receptor (Human herpesvirus 8) (UniProt Q76SF8); test: Antagonist activity at HHV8 ORF74 assessed as inhibition of chemotaxis at 10 uM; conditions: Human gammaherpesvirus 8
# T4 sequence (whole entry): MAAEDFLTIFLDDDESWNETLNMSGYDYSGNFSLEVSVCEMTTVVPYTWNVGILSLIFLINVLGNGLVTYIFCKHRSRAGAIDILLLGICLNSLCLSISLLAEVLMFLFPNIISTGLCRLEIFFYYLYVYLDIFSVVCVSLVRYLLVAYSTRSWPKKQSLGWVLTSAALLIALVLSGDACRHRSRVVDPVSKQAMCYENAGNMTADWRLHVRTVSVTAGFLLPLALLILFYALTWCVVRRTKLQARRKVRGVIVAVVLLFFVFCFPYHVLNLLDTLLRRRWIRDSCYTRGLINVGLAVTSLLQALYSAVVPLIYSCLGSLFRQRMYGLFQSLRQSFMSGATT
# [13] = molecular target: T3, C-C chemokine receptor-like 2 (Homo sapiens); test: Antagonist activity at CCR11 (unknown origin) assessed as inhibition of chemotaxis at 10 uM
# [14] = molecular target: C-X-C chemokine receptor type 6 (Homo sapiens) (UniProt O00574); test: Antagonist activity at CXCR6 (unknown origin) assessed as inhibition of calcium flux at 10 uM; assay type: functional
# [15] = molecular target: T5, C-C chemokine receptor type 3 (Homo sapiens) (UniProt P51677); test: Antagonist activity at CCR3 (unknown origin) assessed as inhibition of chemotaxis at 10 uM
# T5 sequence (whole entry): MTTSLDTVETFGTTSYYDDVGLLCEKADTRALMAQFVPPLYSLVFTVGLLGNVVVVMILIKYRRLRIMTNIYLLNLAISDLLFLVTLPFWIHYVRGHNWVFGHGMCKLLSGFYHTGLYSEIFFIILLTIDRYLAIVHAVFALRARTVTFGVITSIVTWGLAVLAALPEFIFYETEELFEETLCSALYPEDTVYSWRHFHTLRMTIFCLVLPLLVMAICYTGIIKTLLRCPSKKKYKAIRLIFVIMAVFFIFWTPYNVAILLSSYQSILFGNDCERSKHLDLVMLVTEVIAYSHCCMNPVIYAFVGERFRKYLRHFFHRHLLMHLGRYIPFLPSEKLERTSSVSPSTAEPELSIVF
# [16] = molecular target: C-X-C chemokine receptor type 6 (Homo sapiens) (UniProt O00574); test: Binding affinity to CXCR6 (unknown origin) at 10 uM by radioligand displacement assay
# [17] = molecular target: T2, C-X-C chemokine receptor type 3 (Homo sapiens); test: Antagonist activity at CXCR3 (unknown origin) assessed as inhibition of chemotaxis at 10 uM
# Rattus norvegicus [18] = test: Toxicity in Sprague-Dawley rat assessed as effect on blood chemistry at 70 to 360 mg/kg, po after 7 days; assay type: organism-based; set-up: dose 70-360 mg/kg, route oral; conditions: in vivo, 168 h
# C-X-C chemokine receptor type 6 (Homo sapiens), sequence (O00574 whole entry, looked up): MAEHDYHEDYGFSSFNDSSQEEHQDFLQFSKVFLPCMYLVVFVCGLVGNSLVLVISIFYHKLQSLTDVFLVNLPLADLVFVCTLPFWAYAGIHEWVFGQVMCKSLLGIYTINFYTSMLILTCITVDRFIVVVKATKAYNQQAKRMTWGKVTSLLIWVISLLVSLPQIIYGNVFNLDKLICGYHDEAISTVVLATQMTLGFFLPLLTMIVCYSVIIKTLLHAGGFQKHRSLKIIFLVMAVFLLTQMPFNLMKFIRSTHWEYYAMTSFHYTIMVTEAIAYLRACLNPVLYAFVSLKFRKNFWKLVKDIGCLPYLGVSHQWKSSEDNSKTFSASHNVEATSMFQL
# Atypical chemokine receptor 3 (Homo sapiens), sequence (P25106 whole entry): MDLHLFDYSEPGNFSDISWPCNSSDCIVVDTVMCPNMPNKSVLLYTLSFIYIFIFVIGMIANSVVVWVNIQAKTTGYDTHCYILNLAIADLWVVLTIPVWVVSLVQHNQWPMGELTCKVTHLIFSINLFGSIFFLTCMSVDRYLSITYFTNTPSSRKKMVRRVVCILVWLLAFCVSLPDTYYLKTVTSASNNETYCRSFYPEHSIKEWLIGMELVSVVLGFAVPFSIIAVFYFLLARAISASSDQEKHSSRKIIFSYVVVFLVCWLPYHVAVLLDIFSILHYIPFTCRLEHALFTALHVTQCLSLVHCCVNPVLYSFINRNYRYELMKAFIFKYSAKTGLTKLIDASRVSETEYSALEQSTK
# C-C chemokine receptor type 5 (Homo sapiens), sequence (P51681 whole entry, looked up): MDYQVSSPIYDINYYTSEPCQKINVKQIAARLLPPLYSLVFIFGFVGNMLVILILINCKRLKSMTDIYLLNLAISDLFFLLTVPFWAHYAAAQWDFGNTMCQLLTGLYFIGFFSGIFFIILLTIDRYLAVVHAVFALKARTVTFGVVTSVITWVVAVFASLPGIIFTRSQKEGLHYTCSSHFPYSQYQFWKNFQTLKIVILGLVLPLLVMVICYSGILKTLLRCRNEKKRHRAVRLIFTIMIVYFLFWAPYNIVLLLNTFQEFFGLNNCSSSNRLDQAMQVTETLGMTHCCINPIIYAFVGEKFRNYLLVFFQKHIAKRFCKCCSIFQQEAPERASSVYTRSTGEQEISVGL
# C-X-C chemokine receptor type 4 (Homo sapiens), sequence (P61073 whole entry): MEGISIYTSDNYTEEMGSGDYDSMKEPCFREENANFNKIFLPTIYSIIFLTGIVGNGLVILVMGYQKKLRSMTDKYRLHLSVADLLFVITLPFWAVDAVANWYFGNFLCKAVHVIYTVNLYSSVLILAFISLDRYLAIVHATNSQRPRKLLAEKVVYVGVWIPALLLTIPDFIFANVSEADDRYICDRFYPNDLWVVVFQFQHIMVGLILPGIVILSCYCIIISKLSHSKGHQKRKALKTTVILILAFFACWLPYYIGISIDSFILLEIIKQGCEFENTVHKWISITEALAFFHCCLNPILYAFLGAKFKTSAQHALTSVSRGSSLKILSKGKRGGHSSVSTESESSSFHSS
structure (smiles),measurement,setting,value
COc1cc(N2CCN(C(=O)Cn3nc(C(F)(F)F)c(Cl)c3C)CC2)ccc1Cl,Activity,[1],inactive
same,Activity,Rattus norvegicus [2],Non-toxic
same,half-life,[3],13.4 h
same,inhibition,[4],inactive
same,Activity,Rattus norvegicus [5],Non-toxic
same,Activity,Rattus norvegicus [6],Non-toxic
same,inhibition,[7],inactive
same,half-life,[8],2.2 h
same,inhibition,[9],inactive
same,Activity,[10],inactive
same,inhibition,[11],inactive
same,inhibition,[12],inactive
same,inhibition,[13],inactive
same,inhibition,[14],inactive
same,inhibition,[15],inactive
same,Activity,[16],inactive
same,inhibition,[17],inactive
same,Activity,Rattus norvegicus [18],Non-toxic
